Laboratory results from patent US20080287517A1, “Pyrazole Derivatives as Cb1 Modulators” (priority 2005, published 2008).

Molecular target: T1, CB1 receptor (Homo sapiens, UniProt P21554)
T1 construct: expressed in transfected cells
Assay: [35S]-GTPγS binding assay on membranes from cells stably transfected with the CB1 gene, inhibition of CP55940 (EC80) stimulated binding
Format: biochemical
Conditions: concentration giving half maximal inhibition of GTPγS binding; EC80 of agonist CP55940
Experimental: 10 μg of membranes prepared from cells stably transfected with the CB1 gene were suspended in 200 μl of 100 mM NaCl, 5 mM MgCl2, 1 mM EDTA, 50 mM HEPES (pH 7.4), 1 mM DTT, 0.1% BSA and 100 μM GDP. To this was added an EC80 concentration of agonist (CP55940), the required concentration of test compound and 0.1 μCi [^35S]-GTPγS. The reaction was allowed to proceed at 30° C. for 45 min. Samples were then transferred on to GF/B filters using a cell harvester and washed with wash buffer (50 mM Tris (pH 7.4), 5 mM MgCl2, […]). Filters were then covered with scintillant and counted for the amount of [^35S]-GTPγS retained by the filter.
Activity is measured in the absence of all ligands (minimum activity) or in the presence of an EC80 concentration of CP55940 (maximum activity). These activities are set as 0% and 100% activity respectively. At various concentrations of novel ligand, activity is calculated as a percentage of the maximum activity and plotted. The data are fitted using the equation y=A+((B−A)/1+((C/x)UD)) and the IC50 value determined as the concentration required to give half maximal inhibition of GTPγS binding under the conditions used.

T1 sequence (P21554 whole entry): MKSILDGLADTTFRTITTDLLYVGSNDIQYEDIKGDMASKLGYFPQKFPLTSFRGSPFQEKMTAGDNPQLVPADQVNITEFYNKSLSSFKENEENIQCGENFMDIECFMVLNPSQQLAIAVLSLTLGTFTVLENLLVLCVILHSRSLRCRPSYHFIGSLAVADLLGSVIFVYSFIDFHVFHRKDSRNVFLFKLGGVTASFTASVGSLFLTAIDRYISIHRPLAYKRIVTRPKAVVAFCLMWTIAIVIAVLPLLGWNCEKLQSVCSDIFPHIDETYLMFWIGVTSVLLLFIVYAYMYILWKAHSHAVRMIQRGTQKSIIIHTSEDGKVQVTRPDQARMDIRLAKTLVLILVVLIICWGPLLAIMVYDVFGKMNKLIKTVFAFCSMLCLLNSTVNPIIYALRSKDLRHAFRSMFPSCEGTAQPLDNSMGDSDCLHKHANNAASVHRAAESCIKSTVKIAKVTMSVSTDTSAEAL

Cc1ccc(NC(=O)c2nn(-c3ccc(Cl)cc3Cl)c(-c3ccc(OS(=O)(=O)CCC(F)(F)F)cc3)c2C)nc1 [Example 10, 3,3,3-Trifluoro-propane-1-sulfonic acid 4-[2-(2,4-dichlorophenyl)-4-methyl-5-(5-methyl-pyridin-2-ylcarbamoyl)-2H-pyrazol-3-yl]phenyl ester]
IC50: 1.95 nM
